Assay results as given in ChEMBL document CHEMBL1129240, “Synthesis of acyclo-C-nucleosides in the imidazo[1,2-a]pyridine and pyrimidine series as antiviral agents” (J Med Chem, 1996).
Converted amounts (≈) assume the structure as drawn.

Legend:
[1] = Cytotoxic concentration required to reduce CEM cell viability by 50%; format: cell-based; settings: human, CCRF-CEM (CEM) cells
[2] = (§1) Cytotoxic concentration required to cause microscopically detectable alteration of normal cell morphology of HeLa cells; format: cell-based; settings: human, read-out: CC50
[3] = Cytotoxic concentration required to cause microscopically detectable alteration of normal cell morphology of E6SM cells; format: cell-based; settings: human, read-out: CC50
[4] = (§2) Cytotoxic concentration required to cause microscopically detectable alteration of normal cell morphology of Vero cells; format: cell-based; settings: chlorocebus sabaeus, read-out: CC50
HeLa = test: as §1; format: cell-based; settings: Homo sapiens
Vero = test: as §2; format: cell-based; settings: Chlorocebus sabaeus
Cytomegalovirus [5] = test: Minimum Inhibitory Concentration (MIC) tested for activity against Cytomegalovirus (CMV) using AD169 strain; format: functional; settings: Human betaherpesvirus 5
[6] = Minimum cytotoxic concentration to reduce the HEL cell proliferation by 50%; format: cell-based; settings: human, HEL cells; read-out: MCC
Human alphaherpesvirus 3 [7] = test: Minimum Inhibition Concentration (MIC) for activity against Varicella-Zoster Virus(VZV) using YS(TK+) strain.; format: functional
Cytomegalovirus [8] = test: Minimum Inhibitory Concentration (MIC) tested for activity against Cytomegalovirus (CMV) using Davis strain; format: functional; settings: Human betaherpesvirus 5
Human alphaherpesvirus 3 [9] = test: Minimum Inhibitory Concentration (MIC) tested for activity against Varicella-Zoster Virus(VZV) using YS/R (TK-) strain.; format: functional
Human alphaherpesvirus 3 [10] = test: Minimum Inhibitory Concentration (MIC) for activity against Varicella-Zoster Virus(VZV) using OKA (TK+) strain; format: functional
Human alphaherpesvirus 3 [11] = test: Minimum Inhibitory Concentration (MIC) tested for activity against Varicella-Zoster Virus(VZV) using 07/1 (TK-) strain.; format: functional
Human alphaherpesvirus 3 [12] = test: Minimum Inhibition Concentration (MIC) for activity against Varicella-Zoster Virus(VZV) using OKA (TK+) strain; format: functional
Human alphaherpesvirus 3 [13] = test: Minimum Inhibition Concentration (MIC) for activity against Varicella-Zoster Virus (VZV) using YS/R (TK-) strain.; format: functional
Human alphaherpesvirus 3 [14] = test: Minimum Inhibition Concentration (MIC) for activity against Varicella-Zoster Virus (VZV) using YS (TK+) strain.; format: functional
Cytomegalovirus [15] = test: Minimum Inhibition Concentration (MIC) for activity against Cytomegalovirus (CMV) using AD169 strain; format: functional; settings: Human betaherpesvirus 5
Cytomegalovirus [16] = test: Minimum Inhibition Concentration (MIC) for activity against Cytomegalovirus (CMV) using Davis strain; format: functional; settings: Human betaherpesvirus 5
Human alphaherpesvirus 3 [17] = test: Minimum Inhibitory Concentration (MIC) tested for activity against Varicella-Zoster Virus(VZV) using YS(TK+) strain.; format: functional
Human alphaherpesvirus 3 [18] = test: Minimum Inhibition Concentration (MIC) for activity against Varicella-Zoster Virus(VZV) using YS/R (TK-) strain.; format: functional
Human alphaherpesvirus 3 [19] = test: Minimum Inhibition Concentration (MIC) for activity against Varicella-Zoster Virus(VZV) using YS(TK+) strain; format: functional
Human alphaherpesvirus 3 [20] = test: Minimum Inhibition Concentration (MIC) for activity against Varicella-Zoster Virus(VZV) using YS/R (TK-) strain; format: functional
[21] = Minimum cytotoxic concentration required to reduce human embryonic lung (HEL) cell proliferation by 50%; format: cell-based; settings: human embryonic lung (HEL) cells, read-out: MCC
Human alphaherpesvirus 3 [22] = test: Minimum Inhibition Concentration (MIC) for activity against Varicella-Zoster Virus(VZV) using 07/1 (TK-) strain.; format: functional
Human alphaherpesvirus 3 [23] = test: Minimum Inhibition Concentration( MIC) for activity against Varicella-Zoster Virus(VZV) using 07/1 (TK-) strain.; format: functional
Human alphaherpesvirus 3 [24] = test: Minimum Inhibition Concentration( MIC) for activity against Varicella-Zoster Virus(VZV) using YS/R (TK-) strain.; format: functional

SMILES | CC50 [1] | MCC [2] | MCC [3] | MCC [4] | MIC (Cytomegalovirus [5]) | CC50 [6] | MIC (Human alphaherpesvirus 3 [7]) | MIC (Cytomegalovirus [8]) | MIC (Human alphaherpesvirus 3 [9]) | MIC (Human alphaherpesvirus 3 [10]) | MIC (Human alphaherpesvirus 3 [11]) | MIC (Human alphaherpesvirus 3 [12]) | MIC (Human alphaherpesvirus 3 [17]) | also measured
Cc1cccc2ncc(CSCc3ccccc3)n12 | 9.9 µg/mL (≈ 36.9 µM) | 40 µg/mL | 10 µg/mL | 40 µg/mL |  |  |  |  |  |  |  |  |  | 
CCCCOc1ccc(S(=O)(=O)[C@@](C)(Cc2ccc(OCCN3CCCCC3)cc2)C(=O)NO)cc1 |  |  |  |  |  |  |  |  |  |  |  |  |  | EC50 (HeLa): > 400 µg/mL; EC50 (Vero): > 400 µg/mL
Cc1c(Br)c(C)n2c(CSCCO)cnc2c1Br | 17 µg/mL (≈ 43.1 µM) | > 200 µg/mL | 100 µg/mL | > 200 µg/mL | > 10 µg/mL | 70 µg/mL (≈ 178 µM) | > 40 µg/mL | > 10 µg/mL | > 10 µg/mL | > 40 µg/mL | > 40 µg/mL |  |  | 
Cc1ccn2c(CSCc3ccccc3)cnc2c1 | 3.1 µg/mL (≈ 11.6 µM) | 40 µg/mL | 100 µg/mL | 40 µg/mL |  | 45 µg/mL (≈ 168 µM) |  |  |  |  |  | 15 µg/mL (≈ 55.9 µM) |  | MIC (Human alphaherpesvirus 3 [13]): 10 µg/mL (≈ 37.3 µM); MIC (Human alphaherpesvirus 3 [14]): 17 µg/mL (≈ 63.3 µM); MIC (Cytomegalovirus [15]): 3.5 µg/mL (≈ 13 µM); MIC (Cytomegalovirus [16]): 3.5 µg/mL (≈ 13 µM)
Cc1cccc2ncc(CSCC(C)O)n12 (stereo unspecified) | 27 µg/mL (≈ 114 µM) | 100 µg/mL | 400 µg/mL | > 400 µg/mL | > 10 µg/mL | 90 µg/mL (≈ 381 µM) |  | > 10 µg/mL | 24 µg/mL (≈ 102 µM) |  | 24 µg/mL (≈ 102 µM) | 30 µg/mL (≈ 127 µM) | 20 µg/mL (≈ 84.6 µM) | 
Cc1ccn2c(CSCC(O)CO)cnc2c1 (stereo unspecified) | > 100 µg/mL | 400 µg/mL | > 400 µg/mL | > 400 µg/mL | > 50 µg/mL | > 100 µg/mL |  | > 50 µg/mL | 50 µg/mL (≈ 198 µM) | 100 µg/mL (≈ 396 µM) |  |  | > 100 µg/mL | 
CCSCc1cnc2c(C)cccn12 | 4.1 µg/mL (≈ 19.9 µM) | 10 µg/mL | 200 µg/mL | 400 µg/mL | 2 µg/mL (≈ 9.69 µM) | 35 µg/mL (≈ 170 µM) |  | 2 µg/mL (≈ 9.69 µM) |  | 10 µg/mL (≈ 48.5 µM) | 6.8 µg/mL (≈ 33 µM) |  | 5 µg/mL (≈ 24.2 µM) | MIC (Human alphaherpesvirus 3 [18]): > 10 µg/mL
OCCSCc1cnc2ccccn12 | 29 µg/mL (≈ 139 µM) | 200 µg/mL | 400 µg/mL | 400 µg/mL | 40 µg/mL (≈ 192 µM) |  |  | 35 µg/mL (≈ 168 µM) |  | 25 µg/mL (≈ 120 µM) |  |  |  | MIC (Human alphaherpesvirus 3 [19]): 25 µg/mL (≈ 120 µM); MIC (Human alphaherpesvirus 3 [20]): 25 µg/mL (≈ 120 µM); CC50 [21]: > 100 µg/mL
Cc1ccn2c(CSCCCO)cnc2c1 | 17 µg/mL (≈ 71.9 µM) | 40 µg/mL | > 100 µg/mL | > 40 µg/mL | 30 µg/mL (≈ 127 µM) | > 100 µg/mL | > 40 µg/mL | 30 µg/mL (≈ 127 µM) | > 40 µg/mL |  |  | > 40 µg/mL |  | MIC (Human alphaherpesvirus 3 [22]): > 40 µg/mL
Cc1c(Br)c(C)n2c(CSCc3ccccc3)cnc2c1Br | 35 µg/mL (≈ 79.5 µM) | > 100 µg/mL | > 40 µg/mL | > 40 µg/mL | 1.7 µg/mL (≈ 3.86 µM) | > 100 µg/mL | > 40 µg/mL | 4 µg/mL (≈ 9.09 µM) |  |  |  | > 40 µg/mL |  | MIC (Human alphaherpesvirus 3 [22]): 40 µg/mL (≈ 90.9 µM); MIC (Human alphaherpesvirus 3 [18]): 40 µg/mL (≈ 90.9 µM)
c1ccc(CSCc2cnc3ncccn23)cc1 | 4.2 µg/mL (≈ 16.4 µM) | 40 µg/mL | 100 µg/mL | 200 µg/mL | 2 µg/mL (≈ 7.83 µM) | 40 µg/mL (≈ 157 µM) |  | 2 µg/mL (≈ 7.83 µM) |  | 8.8 µg/mL (≈ 34.5 µM) | 5 µg/mL (≈ 19.6 µM) |  | 2.4 µg/mL (≈ 9.4 µM) | MIC (Human alphaherpesvirus 3 [18]): > 10 µg/mL
OCCCSCc1cnc2c(Cl)cc(C(F)(F)F)cn12 | 27 µg/mL (≈ 83.1 µM) | 100 µg/mL | 100 µg/mL | > 100 µg/mL | > 40 µg/mL | > 100 µg/mL | > 40 µg/mL | > 40 µg/mL | > 40 µg/mL | > 40 µg/mL | > 40 µg/mL |  |  | 
Cc1c(Br)cn2c(CSCCO)cnc2c1Br | 37 µg/mL (≈ 97.3 µM) | > 100 µg/mL | > 200 µg/mL | > 40 µg/mL | 20 µg/mL (≈ 52.6 µM) | 50 µg/mL (≈ 132 µM) |  | 30 µg/mL (≈ 78.9 µM) | 20 µg/mL (≈ 52.6 µM) | 35 µg/mL (≈ 92.1 µM) |  |  | > 40 µg/mL | MIC (Human alphaherpesvirus 3 [22]): 22 µg/mL (≈ 57.9 µM)
CCSCc1cnc2cc(C)ccn12 | 11 µg/mL (≈ 53.3 µM) | 100 µg/mL | 40 µg/mL | 200 µg/mL | > 10 µg/mL | 35 µg/mL (≈ 170 µM) |  | 10 µg/mL (≈ 48.5 µM) |  | > 10 µg/mL |  |  | > 10 µg/mL | MIC (Human alphaherpesvirus 3 [23]): > 10 µg/mL; MIC (Human alphaherpesvirus 3 [18]): > 10 µg/mL
Cc1c(Br)cn2c(CSCc3ccccc3)cnc2c1Br | 5 µg/mL (≈ 11.7 µM) | 40 µg/mL | 40 µg/mL | 40 µg/mL |  | 30 µg/mL (≈ 70.4 µM) | 1.8 µg/mL (≈ 4.22 µM) |  |  |  |  | 2.7 µg/mL (≈ 6.34 µM) |  | MIC (Human alphaherpesvirus 3 [24]): 2 µg/mL (≈ 4.69 µM); MIC (Cytomegalovirus [15]): > 1 µg/mL; MIC (Human alphaherpesvirus 3 [22]): 2.3 µg/mL (≈ 5.4 µM); MIC (Cytomegalovirus [16]): 2 µg/mL (≈ 4.69 µM)
